{"source": "patent US12077503B2", "about": "“Substituted cyclic amides and their use as herbicides” (FMC CORPORATION, priority 2015, dated 2024)", "assay_type_in_all_cases": "in vivo", "key": {"[1]": {"tested_on": "rice (Oryra sativa)", "assay": "Test B flooded paddy test", "settings": "Oryza sativa, 360 h, Flood, 250 g ai/ha; visually evaluated after 13 to 15 d; read-out: Plant response rating, Rice (0 to 100 scale where 0 is no effect and 100 is complete control)", "how_it_was_run": "(§1)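 Flooding to 3 cm over soil accompanied treatment, which consisted of adding compound to the standing water around 2-leaf plants; depth was then maintained. Visual assessment versus controls followed at 13 to 15 d (scale 0–100, 0 meaning no effect).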"}, "[2]": {"tested_on": "barnyardgrass (Echinochloa crus-galli)", "assay": "Test B flooded paddy test", "settings": "Echinochloa crus-galli, 360 h, Flood, 250 g ai/ha; visually evaluated after 13 to 15 d; read-out: Plant response rating, Barnyardgrass (0 to 100 scale where 0 is no effect and 100 is complete control)", "how_it_was_run": "as §1"}, "[3]": {"tested_on": "ducksalad (Heteranthera limosa)", "assay": "Test B flooded paddy test", "settings": "Heteranthera limosa, 360 h, Flood, 250 g ai/ha; visually evaluated after 13 to 15 d; read-out: Plant response rating, Ducksalad (0 to 100 scale where 0 is no effect and 100 is complete control)", "how_it_was_run": "as §1"}, "[4]": {"tested_on": "sedge, umbrella (small-flower umbrella sedge, Cyperus difformis)", "assay": "Test B flooded paddy test", "settings": "Cyperus difformis, 360 h, Flood, 250 g ai/ha; visually evaluated after 13 to 15 d; read-out: Plant response rating, Sedge, Umbrella (0 to 100 scale where 0 is no effect and 100 is complete control)", "how_it_was_run": "as §1"}, "[5]": {"tested_on": "barnyardgrass (Echinochloa crus-galli)", "assay": "Test A preemergence", "settings": "Echinochloa crus-galli, pre-emergence, 240 h, Preemergence", "how_it_was_run": "(§2)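 Seeded soil received test chemicals as a preemergence directed spray, and seedlings at one to two leaves, 2–10 cm tall, received them postemergence, in a non-phytotoxic, surfactant-containing solvent mixture. Pots were held in a greenhouse for approximately 10 d, then rated for injury from 0, no effect, to 100, complete control.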"}, "[6]": {"tested_on": "pigweed (Amaranthus retroflexus)", "assay": "Test A preemergence", "settings": "Amaranthus retroflexus, pre-emergence, 240 h, Preemergence"}, "[7]": {"tested_on": "ryegrass, Italian (Italian ryegrass, Lolium multiflorum)", "assay": "Test A preemergence", "settings": "Lolium multiflorum, pre-emergence, 240 h, Preemergence", "how_it_was_run": "as §2"}, "[8]": {"tested_on": "Kochia (Kochia scoparia)", "assay": "Test A preemergence", "settings": "Bassia scoparia, pre-emergence, 240 h, Preemergence", "how_it_was_run": "as §2"}, "[9]": {"tested_on": "ragweed (common ragweed, Ambrosia elatior)", "assay": "Test A preemergence", "settings": "Ambrosia artemisiifolia, pre-emergence, 240 h, Preemergence", "how_it_was_run": "as §2"}, "[10]": {"tested_on": "giant foxtail (Setaria faberii)", "assay": "Test A preemergence", "settings": "Setaria faberi, pre-emergence, 240 h, Preemergence", "how_it_was_run": "as §2"}, "[11]": {"tested_on": "barnyardgrass (Echinochloa crus-galli)", "assay": "Test A postemergence", "settings": "Echinochloa crus-galli, post-emergence, 240 h, Postemergence", "how_it_was_run": "as §2"}, "[12]": {"tested_on": "pigweed (Amaranthus retroflexus)", "assay": "Test A postemergence", "settings": "Amaranthus retroflexus, post-emergence, 240 h, Postemergence", "how_it_was_run": "as §2"}, "[13]": {"tested_on": "ryegrass, Italian (Italian ryegrass, Lolium multiflorum)", "assay": "Test A postemergence", "settings": "Lolium multiflorum, post-emergence, 240 h, Postemergence", "how_it_was_run": "as §2"}, "[14]": {"tested_on": "blackgrass (Alopecurus myosuroides)", "assay": "Test A postemergence", "settings": "Alopecurus myosuroides, post-emergence, 240 h, Postemergence", "how_it_was_run": "as §2"}, "[15]": {"tested_on": "Kochia (Kochia scoparia)", "assay": "Test A postemergence", "settings": "Bassia scoparia, post-emergence, 240 h, Postemergence", "how_it_was_run": "as §2"}, "[16]": {"tested_on": "wheat (Triticum aestivum)", "assay": "Test A postemergence", "settings": "Triticum aestivum, post-emergence, 240 h, Postemergence", "how_it_was_run": "as §2"}, "[17]": {"tested_on": "ragweed (common ragweed, Ambrosia elatior)", "assay": "Test A postemergence", "settings": "Ambrosia artemisiifolia, post-emergence, 240 h, Postemergence", "how_it_was_run": "as §2"}, "[18]": {"tested_on": "giant foxtail (Setaria faberii)", "assay": "Test A postemergence", "settings": "Setaria faberi, post-emergence, 240 h, Postemergence", "how_it_was_run": "as §2"}, "[19]": {"tested_on": "Galium (catchweed bedstraw, Galium aparine)", "assay": "Test A postemergence", "settings": "Galium, post-emergence, 240 h, Postemergence", "how_it_was_run": "as §2"}, "[20]": {"tested_on": "corn (Zea mays)", "assay": "Test A postemergence", "settings": "Zea mays, post-emergence, 240 h, Postemergence", "how_it_was_run": "as §2"}}, "data": [{"smiles": "CN1C[C@H](c2cccc(C(F)(F)F)c2)[C@@H](C(=O)Nc2cccnc2F)C1=O", "note": "[Compound 1397]", "values": [{"measurement": "pest or weed control at 250 g/ha", "setting": "[1]", "result": 0, "unit": "%"}, {"measurement": "pest or weed control at 250 g/ha", "setting": "[2]", "result": 75, "unit": "%"}, {"measurement": "pest or weed control at 250 g/ha", "setting": "[3]", "result": 100, "unit": "%"}, {"measurement": "pest or weed control at 250 g/ha", "setting": "[4]", "result": 0, "unit": "%"}, {"measurement": "pest or weed control at 31 g/ha", "setting": "[5]; 31 g ai/ha, 0 to 100 scale where 0 is no effect and 100 is complete control, read-out: Barnyardgrass plant response rating", "result": 100, "unit": "%"}, {"measurement": "pest or weed control at 125 g/ha", "setting": "[5]; 125 g ai/ha, 0 to 100 scale (0 no effect, 100 complete control), read-out: Plant response rating, Barnyardgrass", "result": 100, "unit": "%"}, {"measurement": "pest or weed control at 31 g/ha", "setting": "[6]; 31 g ai/ha, 0 to 100 scale where 0 is no effect and 100 is complete control, read-out: Pigweed plant response rating", "result": 0, "unit": "%"}, {"measurement": "pest or weed control at 125 g/ha", "setting": "[6]; 125 g ai/ha, 0 to 100 scale (0 no effect, 100 complete control), read-out: Plant response rating, Pigweed", "result": 0, "unit": "%"}, {"measurement": "pest or weed control at 31 g/ha", "setting": "[7]; 31 g ai/ha, 0 to 100 scale where 0 is no effect and 100 is complete control, read-out: Ryegrass, Italian plant response rating", "result": 50, "unit": "%"}, {"measurement": "pest or weed control at 125 g/ha", "setting": "[7]; 125 g ai/ha, 0 to 100 scale (0 no effect, 100 complete control), read-out: Plant response rating, Ryegrass, Italian", "result": 70, "unit": "%"}, {"measurement": "pest or weed control at 31 g/ha", "setting": "[8]; 31 g ai/ha, 0 to 100 scale where 0 is no effect and 100 is complete control, read-out: Kochia plant response rating", "result": 0, "unit": "%"}, {"measurement": "pest or weed control at 125 g/ha", "setting": "[8]; 125 g ai/ha, 0 to 100 scale (0 no effect, 100 complete control), read-out: Plant response rating, Kochia", "result": 60, "unit": "%"}, {"measurement": "pest or weed control at 31 g/ha", "setting": "[9]; 31 g ai/ha, 0 to 100 scale where 0 is no effect and 100 is complete control, read-out: Ragweed plant response rating", "result": 0, "unit": "%"}, {"measurement": "pest or weed control at 125 g/ha", "setting": "[9]; 125 g ai/ha, 0 to 100 scale (0 no effect, 100 complete control), read-out: Plant response rating, Ragweed", "result": 0, "unit": "%"}, {"measurement": "pest or weed control at 31 g/ha", "setting": "[10]; 31 g ai/ha, 0 to 100 scale where 0 is no effect and 100 is complete control, read-out: Foxtail, Giant plant response rating", "result": 100, "unit": "%"}, {"measurement": "pest or weed control at 125 g/ha", "setting": "[10]; 125 g ai/ha, 0 to 100 scale (0 no effect, 100 complete control), read-out: Plant response rating, Foxtail, Giant", "result": 100, "unit": "%"}, {"measurement": "pest or weed control at 31 g/ha", "setting": "[11]; 31 g ai/ha, 0 is no effect, 100 is complete control, read-out: Barnyardgrass plant response rating (0 to 100 scale)", "result": 90, "unit": "%"}, {"measurement": "pest or weed control at 125 g/ha", "setting": "[11]; 125 g ai/ha, visual injury after approx. 10 d, 0 to 100 scale, 0 no effect, 100 complete control, read-out: Plant response rating, Barnyardgrass", "result": 90, "unit": "%"}, {"measurement": "pest or weed control at 31 g/ha", "setting": "[12]; 31 g ai/ha, 0 is no effect, 100 is complete control, read-out: Pigweed plant response rating (0 to 100 scale)", "result": 0, "unit": "%"}, {"measurement": "pest or weed control at 125 g/ha", "setting": "[12]; 125 g ai/ha, visual injury after approx. 10 d, 0 to 100 scale, 0 no effect, 100 complete control, read-out: Plant response rating, Pigweed", "result": 0, "unit": "%"}, {"measurement": "pest or weed control at 31 g/ha", "setting": "[13]; 31 g ai/ha, 0 is no effect, 100 is complete control, read-out: Ryegrass, Italian plant response rating (0 to 100 scale)", "result": 50, "unit": "%"}, {"measurement": "pest or weed control at 125 g/ha", "setting": "[13]; 125 g ai/ha, visual injury after approx. 10 d, 0 to 100 scale, 0 no effect, 100 complete control, read-out: Plant response rating, Ryegrass, Italian", "result": 40, "unit": "%"}, {"measurement": "pest or weed control at 31 g/ha", "setting": "[14]; 31 g ai/ha, 0 is no effect, 100 is complete control, read-out: Blackgrass plant response rating (0 to 100 scale)", "result": 40, "unit": "%"}, {"measurement": "pest or weed control at 125 g/ha", "setting": "[14]; 125 g ai/ha, visual injury after approx. 10 d, 0 to 100 scale, 0 no effect, 100 complete control, read-out: Plant response rating, Blackgrass", "result": 70, "unit": "%"}, {"measurement": "pest or weed control at 31 g/ha", "setting": "[15]; 31 g ai/ha, 0 is no effect, 100 is complete control, read-out: Kochia plant response rating (0 to 100 scale)", "result": 0, "unit": "%"}, {"measurement": "pest or weed control at 125 g/ha", "setting": "[15]; 125 g ai/ha, visual injury after approx. 10 d, 0 to 100 scale, 0 no effect, 100 complete control, read-out: Plant response rating, Kochia", "result": 0, "unit": "%"}, {"measurement": "plant injury at 31 g/ha", "setting": "[16]; 31 g ai/ha, 0 is no effect, 100 is complete control, read-out: Wheat plant response rating (0 to 100 scale)", "result": 40, "unit": "%"}, {"measurement": "plant injury at 125 g/ha", "setting": "[16]; 125 g ai/ha, visual injury after approx. 10 d, 0 to 100 scale, 0 no effect, 100 complete control, read-out: Plant response rating, Wheat", "result": 70, "unit": "%"}, {"measurement": "pest or weed control at 31 g/ha", "setting": "[17]; 31 g ai/ha, 0 is no effect, 100 is complete control, read-out: Ragweed plant response rating (0 to 100 scale)", "result": 0, "unit": "%"}, {"measurement": "pest or weed control at 125 g/ha", "setting": "[17]; 125 g ai/ha, visual injury after approx. 10 d, 0 to 100 scale, 0 no effect, 100 complete control, read-out: Plant response rating, Ragweed", "result": 0, "unit": "%"}, {"measurement": "pest or weed control at 31 g/ha", "setting": "[18]; 31 g ai/ha, 0 is no effect, 100 is complete control, read-out: Foxtail, Giant plant response rating (0 to 100 scale)", "result": 80, "unit": "%"}, {"measurement": "pest or weed control at 125 g/ha", "setting": "[18]; 125 g ai/ha, visual injury after approx. 10 d, 0 to 100 scale, 0 no effect, 100 complete control, read-out: Plant response rating, Foxtail, Giant", "result": 90, "unit": "%"}, {"measurement": "pest or weed control at 31 g/ha", "setting": "[19]; 31 g ai/ha, 0 is no effect, 100 is complete control, read-out: Galium plant response rating (0 to 100 scale)", "result": 20, "unit": "%"}, {"measurement": "pest or weed control at 125 g/ha", "setting": "[19]; 125 g ai/ha, visual injury after approx. 10 d, 0 to 100 scale, 0 no effect, 100 complete control, read-out: Plant response rating, Galium", "result": 60, "unit": "%"}, {"measurement": "plant injury at 31 g/ha", "setting": "[20]; 31 g ai/ha, 0 is no effect, 100 is complete control, read-out: Corn plant response rating (0 to 100 scale)", "result": 50, "unit": "%"}, {"measurement": "Corn plant response rating (crop injury, 0 = no effect, 100 = complete kill) at 125 g/ha", "setting": "[20]; 125 g ai/ha, visual injury after approx. 10 d, 0 to 100 scale, 0 no effect, 100 complete control", "result": 90, "unit": "%"}]}]}
